Measured values: paper PMC8484451, “Characterization of fluorescent probe substrates to develop an efficient high-throughput assay for neonatal hepatic CYP3A7 inhibition screening” (Scientific Reports, 2021)

Assays:
CYP3A7 [1] = target: T1, CYP3A7 (Homo sapiens, UniProt P24462); test: Michaelis-Menten kinetics (fluorescence); assay type: biochemical; conditions: read-out: DBOMF
T1 construct: recombinant human CYP3A7 Supersomes (Sf9 insect cell microsomes); with human NADPH-cytochrome P450 reductase and human cytochrome b5 (co-expressed)

CYP3A7 [2] = target: T1, CYP3A7; test: fluorescent DBF inhibition assay at […]; assay type: biochemical; conditions: read-out: % inhibition at 20 μM
CYP3A7 [3] = target: T1, CYP3A7; test: fluorescent DBF O-debenzylation inhibition assay with recombinant CYP3A7; assay type: biochemical
[4] = substrate: c1ccc(COc2ccc3cccnc3c2)cc1; test: Michaelis-Menten kinetics (fluorescence); assay type: biochemical, Homo sapiens; conditions: NADPH
[5] = substrate: O=C(OCc1ccccc1)c1ccccc1-c1c2ccc(=O)cc-2oc2cc(OCc3ccccc3)ccc12; test: Michaelis-Menten kinetics (fluorescence); metabolites by LC-MS/MS; assay type: biochemical, Homo sapiens; conditions: NADPH likely binds in the CYP3A7 active site mirroring native substrates

O=C(OCOCc1ccccc1)c1ccccc1-c1c2ccc(=O)cc-2oc2cc(OCOCc3ccccc3)ccc12 [DBOMF, dibenzyloxymethylfluorescein] showed a Km (CYP3A7 [1]) of 1620 nM.

For CC(C)CN(C[C@@H](O)[C@H](Cc1ccccc1)NC(=O)O[C@H]1CO[C@H]2OCC[C@H]21)S(=O)(=O)c1ccc(N)cc1 [Darunavir], the inhibition at 20 µM (CYP3A7 [2]) was > 75%.

In the case of Cc1c(O)cccc1C(=O)N[C@@H](CSc1ccccc1)[C@H](O)CN1C[C@H]2CCCC[C@H]2C[C@H]1C(=O)NC(C)(C)C [Nelfinavir], the inhibition at 20 µM (CYP3A7 [2]) is reported as > 75%.

C[C@]12CC[C@H](OS(=O)(=O)O)CC1=CC[C@@H]1[C@@H]2CC[C@]2(C)C(=O)CC[C@@H]12 [DHEA-S] gave an IC50 (CYP3A7 [3]) of 5.31 µM.

B1: CYP3A7 (Homo sapiens) (protein)
chain: MDLIPNLAVETWLLLAVSLILLYLYGTRTHGLFKKLGIPGPTPLPFLGNALSFRKGYWTFDMECYKKYRKVWGIYDCQQPMLAITDPDMIKTVLVKECYSVFTNRRPFGPVGFMKNAISIAEDEEWKRIRSLLSPTFTSGKLKEMVPIIAQYGDVLVRNLRREAETGKPVTLKHVFGAYSMDVITSTSFGVSIDSLNNPQDPFVENTKKLLRFNPLDPFVLSIKVFPFLTPILEALNITVFPRKVISFLTKSVKQIKEGRLKETQKHRVDFLQLMIDSQNSKDSETHKALSDLELMAQSIIFIFAGYETTSSVLSFIIYELATHPDVQQKVQKEIDTVLPNKAPPTYDTVLQLEYLDMVVNETLRLFPVAMRLERVCKKDVEINGMFIPKGVVVMIPSYVLHHDPKYWTEPEKFLPERFSKKNKDNIDPYIYTPFGSGPRNCIGMRFALVNMKLALVRVLQNFSFKPCKETQIPLKLRFGGLLLTEKPIVLKAESRDETVSGA
notes: recombinant human CYP3A7 Supersomes (Sf9 insect cell microsomes); with human NADPH-cytochrome P450 reductase and human cytochrome b5 (co-expressed)
Work on B1 yielded a Km [4] of 0.913 µM, a kcat [4] of 0.0217 s⁻¹ and a Km [5] of 0.525 µM. For the same molecule, the kcat [5] was 0.00247 s⁻¹.
